Literature values, collected in patent EP1069913B1, “GELLING OPHTHALMIC COMPOSITIONS CONTAINING XANTHAN GUM” (Alcon Laboratories, Inc., priority 1998, dated 1999).

conditions: Maleate: second pKa; Boric Acid: in presence of 3.75 to 4.4 wt.% mannitol

SMILES | pKa
OB(O)O [Boric Acid] | 5.7-5.85
O=C(O)/C=C\C(=O)O [Maleate] | 6.33
CC(C)(C)NC[C@H](O)COc1nsnc1N1CCOCC1 [Timolol, reference compound] | 9.21
